# Experimental data: paper PMC10066365, “Nemacol is a small molecule inhibitor of C. elegans vesicular acetylcholine transporter with anthelmintic potential” (Nature Communications, 2023)
# “And” between values parts separate entries of the source, which are not always exact repeats. Identical values can stand only once.
# Experiments:
# [1] = test system: C. elegans; test: C. elegans motor phenotype scoring on solid media (Punc/jerky-unc, coiled, paralyzed), wild-type young adults; type: in vivo, Caenorhabditis elegans; settings: for AVERAGES Fraction Coiled / AVERAGES Fraction Paralyzed / AVERAGES Fraction Punc: average of 3 replicates; for C1 (number of animals) / C2 (number of animals) / Fraction Coiled / Fraction Paralyzed / Fraction Punc / NP (number of animals) / P (number of animals) / Punc (number of animals) / Next Day Animals alive (moving fine): single replicate
# [2] = test system: Dirofilaria immitis L3/L4; test: Dirofilaria immitis L3/L4 motility assay (DiroImager, 72 h); settings: Dirofilaria immitis L4
# [3] = 60uM, one hour, young adults, 20 animals per trial, single replicate counts
structure (smiles),measurement,setting,value
O=[N+]([O-])c1ccc(N2CCN(CC3CC=CCC3)CC2)cc1 (centres unmarked) [Nemacol-4],AVERAGES Fraction Coiled,"[1]; 30 μM, 120 min",0.0741
same,AVERAGES Fraction Paralyzed,"[1]; 30 μM, 120 min",0.0185
same,AVERAGES Fraction Punc,"[1]; 30 μM, 120 min",0.5
same,C1 (number of animals),"[1]; 30 μM, 120 min",2 and 1
same,C2 (number of animals),"[1]; 30 μM, 120 min",0
same,Fraction Coiled,"[1]; 30 μM, 120 min",0.111 and 0.0556
same,Fraction Paralyzed,"[1]; 30 μM, 120 min",0.0556 and 0.0
same,Fraction Punc,"[1]; 30 μM, 120 min",0.556 and 0.5
same,NP (number of animals),"[1]; 30 μM, 120 min",5 and 8
same,P (number of animals),"[1]; 30 μM, 120 min",1 and 0
same,Punc (number of animals),"[1]; 30 μM, 120 min",10 and 9
same,AVERAGES Fraction Coiled,"[1]; 30 μM, 240 min",0.0
same,AVERAGES Fraction Paralyzed,"[1]; 30 μM, 240 min",0.0
same,AVERAGES Fraction Punc,"[1]; 30 μM, 240 min",0.333
same,C1 (number of animals),"[1]; 30 μM, 240 min",0
same,C2 (number of animals),"[1]; 30 μM, 240 min",0
same,Fraction Coiled,"[1]; 30 μM, 240 min",0.0
same,Fraction Paralyzed,"[1]; 30 μM, 240 min",0.0
same,Fraction Punc,"[1]; 30 μM, 240 min",0.333 and 0.222 and 0.444
same,NP (number of animals),"[1]; 30 μM, 240 min",12 and 14 and 10
same,P (number of animals),"[1]; 30 μM, 240 min",0
same,Punc (number of animals),"[1]; 30 μM, 240 min",6 and 4 and 8
same,AVERAGES Fraction Coiled,"[1]; 30 μM, 360 min",0.0
same,AVERAGES Fraction Paralyzed,"[1]; 30 μM, 360 min",0.0
same,AVERAGES Fraction Punc,"[1]; 30 μM, 360 min",0.111
same,C1 (number of animals),"[1]; 30 μM, 360 min",0
same,C2 (number of animals),"[1]; 30 μM, 360 min",0
same,Fraction Coiled,"[1]; 30 μM, 360 min",0.0
same,Fraction Paralyzed,"[1]; 30 μM, 360 min",0.0
same,Fraction Punc,"[1]; 30 μM, 360 min",0.0556 and 0.278 and 0.0
same,NP (number of animals),"[1]; 30 μM, 360 min",17 and 13 and 18
same,P (number of animals),"[1]; 30 μM, 360 min",0
same,Punc (number of animals),"[1]; 30 μM, 360 min",1 and 5 and 0
same,Next Day Animals alive (moving fine),[1]; 30 μM,"alive, recovered"
same,AVERAGES Fraction Coiled,"[1]; 60 μM, 30 min",0.111
same,AVERAGES Fraction Paralyzed,"[1]; 60 μM, 30 min",0.0
same,AVERAGES Fraction Punc,"[1]; 60 μM, 30 min",0.8
same,C1 (number of animals),"[1]; 60 μM, 30 min",1 and 0
same,C2 (number of animals),"[1]; 60 μM, 30 min",2 and 1
same,Fraction Coiled,"[1]; 60 μM, 30 min",0.167 and 0.0556 and 0.111
same,Fraction Paralyzed,"[1]; 60 μM, 30 min",0.0
same,Fraction Punc,"[1]; 60 μM, 30 min",0.7 and 0.9
same,NP (number of animals),"[1]; 60 μM, 30 min",2 and 4 and 0
same,P (number of animals),"[1]; 60 μM, 30 min",0
same,Punc (number of animals),"[1]; 60 μM, 30 min",13 and 16
same,AVERAGES Fraction Coiled,"[1]; 60 μM, 60 min",0.149
same,AVERAGES Fraction Paralyzed,"[1]; 60 μM, 60 min",0.037
same,AVERAGES Fraction Punc,"[1]; 60 μM, 60 min",0.7
same,C1 (number of animals),"[1]; 60 μM, 60 min",2 and 0 and 1
same,C2 (number of animals),"[1]; 60 μM, 60 min",2 and 1
same,Fraction Coiled,"[1]; 60 μM, 60 min",0.222 and 0.0588 and 0.167
same,Fraction Paralyzed,"[1]; 60 μM, 60 min",0.111 and 0.0
same,Fraction Punc,"[1]; 60 μM, 60 min",0.667 and 0.7 and 0.8
same,NP (number of animals),"[1]; 60 μM, 60 min",0 and 4
same,P (number of animals),"[1]; 60 μM, 60 min",2 and 0
same,Punc (number of animals),"[1]; 60 μM, 60 min",12 and 15
same,AVERAGES Fraction Coiled,"[1]; 60 μM, 90 min",0.148
same,AVERAGES Fraction Paralyzed,"[1]; 60 μM, 90 min",0.111
same,AVERAGES Fraction Punc,"[1]; 60 μM, 90 min",0.741
same,C1 (number of animals),"[1]; 60 μM, 90 min",3 and 1 and 0
same,C2 (number of animals),"[1]; 60 μM, 90 min",1 and 2
same,Fraction Coiled,"[1]; 60 μM, 90 min",0.222 and 0.167 and 0.0556
same,Fraction Paralyzed,"[1]; 60 μM, 90 min",0.222 and 0.0556
same,Fraction Punc,"[1]; 60 μM, 90 min",0.556 and 0.8 and 0.9
same,NP (number of animals),"[1]; 60 μM, 90 min",0
same,P (number of animals),"[1]; 60 μM, 90 min",4 and 1
same,Punc (number of animals),"[1]; 60 μM, 90 min",10 and 14 and 16
same,AVERAGES Fraction Coiled,"[1]; 60 μM, 120 min",0.111
same,AVERAGES Fraction Paralyzed,"[1]; 60 μM, 120 min",0.037
same,AVERAGES Fraction Punc,"[1]; 60 μM, 120 min",0.8
same,C1 (number of animals),"[1]; 60 μM, 120 min",1 and 0
same,C2 (number of animals),"[1]; 60 μM, 120 min",1 and 2
same,Fraction Coiled,"[1]; 60 μM, 120 min",0.111
same,Fraction Paralyzed,"[1]; 60 μM, 120 min",0.0556 and 0.0
same,Fraction Punc,"[1]; 60 μM, 120 min",0.7 and 0.9 and 0.8
same,NP (number of animals),"[1]; 60 μM, 120 min",2 and 0
same,P (number of animals),"[1]; 60 μM, 120 min",1 and 0
same,Punc (number of animals),"[1]; 60 μM, 120 min",13 and 16 and 15
same,AVERAGES Fraction Coiled,"[1]; 60 μM, 240 min",0.0
same,AVERAGES Fraction Paralyzed,"[1]; 60 μM, 240 min",0.037
same,AVERAGES Fraction Punc,"[1]; 60 μM, 240 min",0.5
same,C1 (number of animals),"[1]; 60 μM, 240 min",0
same,C2 (number of animals),"[1]; 60 μM, 240 min",0
same,Fraction Coiled,"[1]; 60 μM, 240 min",0.0
same,Fraction Paralyzed,"[1]; 60 μM, 240 min",0.0 and 0.111
same,Fraction Punc,"[1]; 60 μM, 240 min",0.4 and 0.333 and 0.7
same,NP (number of animals),"[1]; 60 μM, 240 min",11 and 12 and 3
same,P (number of animals),"[1]; 60 μM, 240 min",0 and 2
same,Punc (number of animals),"[1]; 60 μM, 240 min",7 and 6 and 13
same,AVERAGES Fraction Coiled,"[1]; 60 μM, 360 min",0.0
same,AVERAGES Fraction Paralyzed,"[1]; 60 μM, 360 min",0.0
same,AVERAGES Fraction Punc,"[1]; 60 μM, 360 min",0.37
same,C1 (number of animals),"[1]; 60 μM, 360 min",0
same,C2 (number of animals),"[1]; 60 μM, 360 min",0
same,Fraction Coiled,"[1]; 60 μM, 360 min",0.0
same,Fraction Paralyzed,"[1]; 60 μM, 360 min",0.0
same,Fraction Punc,"[1]; 60 μM, 360 min",0.333 and 0.444
same,NP (number of animals),"[1]; 60 μM, 360 min",12 and 10
same,P (number of animals),"[1]; 60 μM, 360 min",0
same,Punc (number of animals),"[1]; 60 μM, 360 min",6 and 8
same,Next Day Animals alive (moving fine),[1]; 60 μM,"alive, recovered"
same,"any phene, mean % fraction of young adults exhibiting any phenotype (coiled, jerky-Unc or paralyzed)","[1]; 60uM, one hour, mean of three biological replicates",94.1667%
same,atypical locomotion (number of animals),[1]; [3],9 and 8 and 13 and 10 and 2 and 3
same,coiled (number of animals),[1]; [3],8 and 7 and 3 and 1 and 4 and 5
same,no phene (number of animals),[1]; [3],0 and 3 and 4
same,paralyzed (number of animals),[1]; [3],3 and 5 and 1 and 14 and 12
same,EC50,"[1]; Caenorhabditis elegans, 1 h, Fig. 1, dose-response at 60 min, wild-type young adults, +/- 95% CI, read-out: EC50",15 ± 2.3 µM
same,"% effect (motility), DIROIM L4",[2]; 2 µM,5%
same,"% effect (motility), DIROIM L4",[2]; 10 µM,100%
same,"% effect (motility), DIROIM L4",[2]; 50 µM,100%
